Data from PMC8229129, “Local Colonic Administration of a Serine Protease Inhibitor Improves Post-Inflammatory Visceral Hypersensitivity in Rats” (Pharmaceutics, 2021).
Where “and” joins values, the source holds several entries; their conditions need not be identical. Equal values may be shown once.

Experiments:
[1] = tested on: visceral hypersensitivity in post-colitis rats; parameters: method as in PMID 29911328; conditions: TNBS-induced post-inflammatory rats, intraperitoneally; cited from earlier work
uPA = tested on: uPA; parameters: method as in PMID 29911328; conditions: in vitro; cited from earlier work
kallikrein 2 = tested on: kallikrein 2; parameters: method as in PMID 29911328; conditions: in vitro; cited from earlier work
[2] = tested on: inflammatory infiltrate and mucosal architecture of distal colon; assay: Microscopic score of the distal colon; type: in vivo, Sprague–Dawley rats; conditions: for Microscopy, Day of VMR: score 0–10, mean ± SEM, n = 8
Description: For microscopic evaluation, a representative section of the distal colon (1 cm^2) was fixed in 4% formaldehyde for 24 h and embedded in paraffin for hematoxylin and eosin staining. Transverse sections (5 µm) were scored for the presence of inflammatory infiltrate and alterations in mucosal architecture, as previously described (total score 0–10, Supplementary Table S3).

[3] = Pharmacokinetics after intravenous administration (plasma, LC-MS/MS, PKSolver two-compartment model); type: in vivo, Sprague–Dawley rats; conditions: rat, i.v. 1 mg/kg
Description: To evaluate the pharmacokinetic properties of UAMC-00050, it was administered in male Sprague–Dawley rats (200–225 g) either colonically (5 mg/kg, in a volume of 200 µL 5% DMSO solution) or intravenously (1 mg/kg in a volume of 200 µL 5% DMSO solution). Plasma samples were collected after 5, 15, 30, 45, 60, 90, 120, and 180 min via the tail vein and stored at −80 °C until analysis.
Sample preparation and analysis of plasma samples consisted of protein precipitation followed by direct injection in a liquid chromatography–tandem mass spectrometry (LC-MS/MS) instrument. Briefly, 100 µL of plasma was spiked with 20 µL of nordazepam-D5 used as internal standard for quantification (yielding in a final concentration of 485 ng/mL) and afterwards 180 µL of acetonitrile was added to precipitate proteins. Subsequently, the samples were vortexed for 2.5 min at 2000× g and centrifuged for 5 min at 10,000× g. In a next step, 100 µL of the supernatant was transferred to a 0.20 µm centrifugal filter to remove remaining particles. After centrifugation for 5 min at 10,000× g, the remaining filtrate was transferred to an autosampler vial ready to be analyzed with LC-MS/MS. A seven-level point calibration curve with final concentrations ranging between 5 and 1000 ng/mL and a curve weighting factor of 1/x^2 was prepared in blank mouse plasma using different working solution standards of UAMC-00050 and a fixed amount of internal standard. The lower limit of quantification of the method was 5 ng/mL.
A gradient was applied as follows: 0–0.5 min: 5% B; 0.5–10 min 5–100% B; 10–12 min 100% B; and 12–12.1 min 5% B. The total run time was 18 min and the injection volume was set to 5 µL. Detection and quantification of UAMC-00050 were performed with an Agilent 6410 triple quadrupole MS system with an electrospray interface (ESI) operating in positive ionization mode. The following source parameters were applied: gas temperature 350 °C, gas flow 10 L/min, nebulizer 35 psi, and capillary voltage 4000 V. Compound-dependent MS parameters are summarized in Table 1. The most abundant transition of UAMC-00050 was used as quantifier and the other transitions were used for confirmation (qualifiers). For compound confirmation, the following criteria were used: the quantifier/qualifier ratio should fall within ±15% of the ratio observed in calibrators and the relative retention time should fall within 2.5% of the values observed in the calibrators.
All data are presented as mean ± SEM or as median (IQR). Pharmacokinetic analysis and modeling of the plasma concentration–time data was performed using PKSolver. Other statistical analysis and data visualization processes were performed using R software (version 4.0.3) and GraphPad Prism (version 7.04). The nominal significance level was 0.05 for all tests. The development of body weight, VMR results, and colonic compliance were assessed with generalized estimating equations (GEE) using an unstructured working correlation matrix, followed by Fisher’s least significant difference (LSD) post hoc test on prespecified pairwise comparisons of interest. Inflammatory parameters were analyzed using two-way analysis of variance (ANOVA), followed by Student–Newman–Keuls (SNK) post hoc testing when applicable. To evaluate the differences in proteolytic activities between control, post-colitis, treated, and untreated rats, a two-way ANOVA was conducted. Main effects were tested on split files with a Mann–Whitney U test with Bonferroni correction. To assess correlations between specific fecal or colonic proteolytic activities and inflammatory parameters, the pairwise comparisons of interest were determined a priori. Spearman’s rank order correlation coefficient was used and the Holm–Bonferroni method was applied to correct for multiplicity.

kallikrein 8 = tested on: kallikrein 8; parameters: method as in PMID 29911328; conditions: in vitro; cited from earlier work

## CC(=O)Nc1ccc(OP(=O)(Oc2ccc(NC(C)=O)cc2)C(Cc2ccc(N=C(N)N)cc2)NC(=O)OCc2ccccc2)cc1.Cl (stereo not shown) [UAMC-00050]
[1]
  Dose required to obtain complete reversal of visceral hypersensitivity: 1.0 mg/kg
uPA
  inhibition of uPA: efficiently inhibits
Kallikrein 2
  inhibition of kallikrein 2: efficiently inhibits
[2]; control rats, 5.0 mg/kg intracolonic
  Microscopy, Day of VMR: 0.8 ± 0.4
[2]; post-colitis rats, 0.1 mg/kg intracolonic
  Microscopy, Day of VMR: 0.4 ± 0.4
[2]; post-colitis rats, 1.0 mg/kg intracolonic
  Microscopy, Day of VMR: 0.8 ± 0.4
[2]; post-colitis rats, 2.5 mg/kg intracolonic
  Microscopy, Day of VMR: 0.5 ± 0.4
[2]; post-colitis rats, 5.0 mg/kg intracolonic
  Microscopy, Day of VMR: 0.6 ± 0.4
[2]; single intracolonic administration, control and post-colitis rats
  Effect on microscopic evaluation of mucosal damage: no effect
[3]; distribution to the peripheral compartment
  k12: 0.028 min⁻¹
[3]; redistribution from peripheral to central compartment
  k21: 0.014 min⁻¹
[3]; two-compartment model
  A: 500.7 ng/mL
  AUC 0-inf: 5915 ng·min/mL
  AUC 0-t: 5422 ng·min/mL
  AUMC: 200,489 ng/mL*min2
  Alpha: 0.119 min⁻¹
  B: 17.9 ng/mL
  Beta: 0.010 min⁻¹
  C0: 0.5187 µg/mL
  CL: 0.0005072 (mg)/(ng/mL)/min
  CL2: 0.0001621 (mg)/(ng/mL)/min
  MRT: 33.9 min
  V: 0.006 (mg)/(ng/mL)
  V2: 0.011 (mg)/(ng/mL)
  Vss: 0.017 mg/(ng/mL)
  k10: 0.087 min⁻¹
  k12: 0.028 min⁻¹
  k21: 0.014 min⁻¹
  t1/2Beta: 66.5 min
[3]; two-compartment model, 1 mg/kg
  t1/2Alpha: 5.800 min and 5.8 min
Kallikrein 8
  inhibition of kallikrein 8: efficiently inhibits
